This is an account of results in patent US8470765B2, “Polypeptides and antibacterial or antiseptic use of same” (AnGes MG, Inc., priority 2009, dated 2013).

The term viability denotes a read-out of living cells in per cent, often relative to untreated cells.

The subject of assay [1] is Escherichia coli ATCC 25922. In words: ATP Assay (viability at 3 hours), Table 6. Particulars: ATCC25922, 3 h, read-out: Escherichia coli ATP (viability, relative value to negative control). The assay is classed as cell-based. The essentials:
(§1)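 Log-phase bacteria at about 10^5 CFU/mL final in Mueller-Hinton broth were exposed 3 h at 37 °C to peptide (solution prepared at 10 μg/mL before 1:1 mixing with inoculum). ATP (BacTiter-Glo luminescence) relative to untreated wells defined viability; two independent experiments.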

Assay [2] deals with Pseudomonas aeruginosa ATCC 27853. In words: ATP Assay (viability at 3 hours), Table 6. In kind it is cell-based. Particulars: ATCC27853, 3 h, read-out: Pseudomonas aeruginosa ATP (viability, relative value to negative control). The essentials:
as §1

Assay [3] has as its system Staphylococcus aureus ATCC29213. In words: ATP Assay (viability at 3 hours), Table 6. To be noted: ATCC29213, 3 h, read-out: Staphylococcus aureus ATP (viability, relative value to negative control). In kind it is cell-based. The essentials: as §1
In assay [4] the test system is Staphylococcus epidermidis JCM 2414. In words: microbe, parasite or virus in culture. The assay is classed as cell-based. Particulars: Staphylococcus epidermidis, JCM2414, read-out: MIC Staphylococcus epidermidis; Table 4; two tests, first/second value where not identical. The essentials:
(§2)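 Inoculum: 4–6 h subculture, turbidity matched to McFarland #0.5, diluted to ~10^5 CFU/mL final. Peptide dilutions in MHB from 128 μg/mL; 37° C, 16–24 h. MIC = lowest concentration inhibiting visible growth; ≥2 independent runs per strain.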

Assay [5] relates to Staphylococcus aureus ATCC29213. In words: microbe, parasite or virus in culture. In kind it is cell-based. To be noted: Staphylococcus aureus, ATCC29213, read-out: MIC Staphylococcus aureus; Table 4; two tests, first/second value where not identical. The essentials:
as §2

Assay [6] deals with methicillin-sensitive Staphylococcus (MSSA) MSSA(i). In words: organism not typed. Particulars: read-out: MIC MSSA(i). On the procedure: (§3) Bacteria (Escherichia coli ATCC 25922, Pseudomonas aeruginosa ATCC 27853, Staphylococcus aureus ATCC29213, Klebsiella pneumoniae JCM 1662, Enterobacter cloacae JCM 1232, Enterobacter aerogenes JCM 1235 and Staphylococcus epidermidis JCM 2414) were inoculated to Mueller-Hinton broth: MHB or LB medium, and cultured at a temperature and period suited for each strain. From the thus obtained colonies, each strain was inoculated to a fresh liquid medium and cultured for 16 to 20 hours. Then an aliquot having a volume (10 to 50 appropriate to each strain was inoculated to a fresh liquid medium and cultured for 4 to 6 hours, followed by the measurement of the absorbance at 600 nm. After comparing the turbidity with McFarland #0.5, the resultant was diluted with a medium. Each strain was added to about 10^5 CFU/mL (final concentration).
(§4) Further, the antibacterial activities against the clinical strains collected and isolated from infected patients were also examined. The tests were carried out for two methicillin-resistant Staphylococcus (MRSA) (MRSA (i) and (ii)), two methicillin-sensitive Staphylococcus (MSSA) (MSSA (i) and (ii)), five Pseudomonas aeruginosa, Pseudomonas aeruginosa 1, Pseudomonas aeruginosa 6, Pseudomonas aeruginosa 8. Pseudomonas aeruginosa 9 and Pseudomonas aeruginosa 12, totally 9 clinical strains. The MRSA and MSSA clinical strains were tested by the same method as Staphylococcus aureus ATCC29213, and Pseudomonas clinical strains were tested by the same method as Pseudomonas aeruginosa ATCC 27853.
(§5) Each of the peptide solutions to be tested was diluted with MHB to obtain a solution of 128 μg/mL. This solution was serially diluted with the medium to prepare peptide-containing media having concentrations of 128, 64, 32, 16, 8.0, 4.0 and 2.0 μg/mL respectively. […] By dilution with sterilized purified water to 1.0 mg/mL, positive control-containing media having concentrations of 16, 8, 4, 2, 1.0, 0.25, 0.12 and 0.06 μg/mL, respectively for TOB; 0.5, 0.12 and 0.06 μg/mL, respectively, for OX; and 16, 8, 4, 2, 1.0, 0.25, 0.12, 0.06, 0.06, 0.03 and 0.008 μg/mL, respectively, for MEPM, were prepared.
(§6) To a 96-well microtiter plate, 0.1 mL of the inoculation solution and 0.1 mL of the peptide- or positive control-containing medium having the respective concentration were added, and cultured at 37° C. for 16 to 24 hours (or a time period suited for the growth of the respective strain). The well not containing the sample was used as a negative control. After the culturing, the growth was visually observed, and the minimum concentration at which the growth was inhibited was defined as the minimum growth inhibition concentration (MIC).
(§7) The medium used in this test for bacteria was Mueller-Hinton broth. Independent experiments were carried out twice or more for each strain.

Assay [7] has as its system methicillin-resistant Staphylococcus (MRSA) MRSA(i). In words: organism not typed. Particulars: read-out: MIC MRSA(i). On the procedure: as §3, §4, §5, §6, §7
The subject of assay [8] is methicillin-sensitive Staphylococcus (MSSA) MSSA(ii). Briefly: organism not typed. Particulars: read-out: MIC MSSA(ii). On the procedure: as §3, §4, §5, §6, §7
For assay [9], the system named is methicillin-resistant Staphylococcus (MRSA) MRSA(ii). In words: organism not typed. Particulars: read-out: MIC MRSA(ii). On the procedure: as §3, §4, §5, §6, §7
The subject of assay [10] is Fusobacterium nucleatum JCM 11025. Briefly: microbe, parasite or virus in culture. Particulars: JCM11025, read-out: MIC Fusobacterium nucleatum.
Assay [11] has as its system Bacillus subtilis NBRC3134. In words: microbe, parasite or virus in culture. Particulars: NBRC3134, read-out: MIC Bacillus subtilis.
Assay [12] relates to Salmonella enteritidis IID 604. In words: microbe, parasite or virus in culture. To be noted: Salmonella enterica, read-out: MIC Salmonella Enteritidis.
Assay [13] has as its system Acinetobacter baumanni JCM6841. Particulars: Table 4; two tests, first/second value where not identical.
Assay [14] deals with Actinobacillus actinomycetemcomitans JCM2434. In words: microbe, parasite or virus in culture. Particulars: Aggregatibacter actinomycetemcomitans, JCM2434, read-out: MIC Actinobacillus actinomycetemcomitans.
For assay [15], the system named is Streptococcus pyogenes JCM5674. In words: microbe, parasite or virus in culture. Particulars: JCM5674, read-out: MIC Streptococcus pyogenes.
Assay [16] has as its system Salmonella typhimurium JCM1652. Briefly: microbe, parasite or virus in culture. To be noted: Salmonella enterica, read-out: MIC Salmonella Typhimurium.
The subject of assay [17] is Micrococcus luteus NBRC13867. In words: microbe, parasite or virus in culture. Particulars: NBRC13867, read-out: MIC Micrococcus luteus.
The test system of assay [18] is Bacteroides fragilis JCM 11019. In words: microbe, parasite or virus in culture. To be noted: JCM11019, read-out: MIC Bacteroides fragilis.

The structures appear in SMILES notation. Converted amounts (≈) assume the structure as drawn.

As to `Cc1onc(-c2ccccc2)c1C(=O)N[C@@H]1C(=O)N2[C@@H]1SC(C)(C)[C@@H]2C(=O)O` [oxacillin, reference compound], the viability at 10 µg/mL in assay [1] was determined as 142%; in assay [2] it was 100%; in [3] it was 121%. The MIC in assay [4] was 0.15 to 0.5 µg/mL (≈ 0.374 to 1.25 µM); in assay [5] it was 0.15 to 0.5 µg/mL (≈ 0.374 to 1.25 µM); in assay [6] it was 8 µg/mL (≈ 19.9 µM); in [7], less than 4000 µg/mL; in assay [8], 2 µg/mL (≈ 4.98 µM); in [9], more than 8000 µg/mL.
With `O=C(N[C@H](CO)[C@H](O)c1ccc([N+](=O)[O-])cc1)C(Cl)Cl` [chloramphenicol], the MIC is 0.25 µg/mL (≈ 0.774 µM) in [10]; 4 µg/mL (≈ 12.4 µM) in assay [11]; 4 µg/mL (≈ 12.4 µM) in assay [12]; 0.5 µg/mL (≈ 1.55 µM) in assay [14]; 2 µg/mL (≈ 6.19 µM) in assay [15]; 4 µg/mL (≈ 12.4 µM) in [16]. Besides, the MIC in assay [17] and in [18] was 1 µg/mL (≈ 3.09 µM) throughout. Moreover, the “MIC Acinetobacter baumanni” value in assay [13] is 16/32.
